{
  "source": "patent US7138361B2",
  "about": "“Herbicidal heterocycles” (E. I. du Pont de Nemours and Company, priority 2000, dated 2006)",
  "type_in_all_cases": "in vivo",
  "key": {"[1]": {"tested_on": "morning glory (Ipomoea hederacea)", "assay": "Test B postemergence", "settings": "13 to 15 days", "in_short": "(§1)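 Ratings on a 0 to 100 visual scale (100 complete control) compare treated plants with controls 13 to 15 days after application. Treatments were pre- or postemergence sprays of compound in non-phytotoxic solvent with surfactant.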"}, "[2]": {"tested_on": "crabgrass (Digitaria sanguinalis)", "assay": "Test B postemergence", "settings": "13 to 15 days", "in_short": "as §1"}, "[3]": {"tested_on": "giant foxtail (Setaria faberii)", "assay": "Test B postemergence", "settings": "13 to 15 days", "in_short": "as §1"}, "[4]": {"tested_on": "velvetleaf (Abutilon theophrasti)", "assay": "Test B postemergence", "settings": "13 to 15 days", "in_short": "as §1"}, "[5]": {"tested_on": "lambsquarters (Chenopodium album)", "assay": "Test B postemergence", "settings": "13 to 15 days", "in_short": "as §1"}, "wild oat (Avena fatua)": {"tested_on": "wild oat (Avena fatua)", "assay": "Test B postemergence", "settings": "13 to 15 days", "in_short": "as §1"}, "[6]": {"tested_on": "Surinam grass (Brachiaria decumbens)", "assay": "Test B postemergence", "settings": "13 to 15 days", "in_short": "as §1"}, "[7]": {"tested_on": "wheat (Triticum aestivum)", "assay": "Test B postemergence", "settings": "13 to 15 days", "in_short": "as §1"}, "[8]": {"tested_on": "cocklebur (Xanthium strumarium)", "assay": "Test B postemergence", "settings": "13 to 15 days", "in_short": "as §1"}, "[9]": {"tested_on": "blackgrass (Alopecurus myosuroides)", "assay": "Test B postemergence", "settings": "13 to 15 days", "in_short": "as §1"}, "[10]": {"tested_on": "pigweed (Amaranthus retroflexus)", "assay": "Test B postemergence", "settings": "13 to 15 days", "in_short": "as §1"}, "[11]": {"tested_on": "barnyardgrass (Echinochloa crus-galli)", "assay": "Test B postemergence", "settings": "13 to 15 days", "in_short": "as §1"}, "corn (Zea mays) [12]": {"tested_on": "corn (Zea mays)", "assay": "Test B postemergence", "settings": "13 to 15 days", "in_short": "as §1"}, "[13]": {"tested_on": "morning glory (Ipomoea hederacea)", "assay": "Test B preemergence", "settings": "scale 0 to 100, 0 no effect, 100 complete control", "in_short": "as §1"}, "[14]": {"tested_on": "crabgrass (Digitaria sanguinalis)", "assay": "Test B preemergence", "settings": "scale 0 to 100, 0 no effect, 100 complete control", "in_short": "as §1"}, "[15]": {"tested_on": "giant foxtail (Setaria faberii)", "assay": "Test B preemergence", "settings": "scale 0 to 100, 0 no effect, 100 complete control", "in_short": "as §1"}, "[16]": {"tested_on": "velvetleaf (Abutilon theophrasti)", "assay": "Test B preemergence", "settings": "scale 0 to 100, 0 no effect, 100 complete control", "in_short": "as §1"}, "[17]": {"tested_on": "lambsquarters (Chenopodium album)", "assay": "Test B preemergence", "settings": "scale 0 to 100, 0 no effect, 100 complete control", "in_short": "as §1"}, "[18]": {"tested_on": "Surinam grass (Brachiaria decumbens)", "assay": "Test B preemergence", "settings": "scale 0 to 100, 0 no effect, 100 complete control", "in_short": "as §1"}, "[19]": {"tested_on": "cocklebur (Xanthium strumarium)", "assay": "Test B preemergence", "settings": "scale 0 to 100, 0 no effect, 100 complete control", "in_short": "as §1"}, "[20]": {"tested_on": "pigweed (Amaranthus retroflexus)", "assay": "Test B preemergence", "settings": "scale 0 to 100, 0 no effect, 100 complete control", "in_short": "as §1"}, "[21]": {"tested_on": "barnyardgrass (Echinochloa crus-galli)", "assay": "Test B preemergence", "settings": "scale 0 to 100, 0 no effect, 100 complete control", "in_short": "as §1"}, "corn (Zea mays) [22]": {"tested_on": "corn (Zea mays)", "assay": "Test B preemergence", "settings": "scale 0 to 100, 0 no effect, 100 complete control", "in_short": "as §1"}, "[23]": {"tested_on": "smallflower flatsedge (Cyperus difformis)", "assay": "Test C flooded paddy test", "settings": "for Flatsedge plant response rating: Flooded Paddy, scale 0 to 100, 0 no effect, 100 complete control; for Plant response rating, Flatsedge: flooded paddy test, scale 0 to 100 (0 no effect, 100 complete control)", "in_short": "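Plants were grown to the 2-leaf stage under flooded paddy conditions and treated. They were then kept in a greenhouse for 12 to 14 days and visually rated against untreated controls on a 0–100 scale, where 0 is no effect and 100 is complete control.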"}, "[24]": {"settings": "Rate 125 g/ha, scale 0 (no effect) to 100 (complete control)"}, "[25]": {"settings": "Rate 500 g/ha, scale 0 to 100, 0 is no effect, 100 is complete control"}},
  "data": [
    {"molecule": "CC(C)(C)c1ccn(C2CCN(c3cccc(C(F)(F)F)c3)C2=O)n1", "note": "(stereo not drawn) [Example 3, 3-[3-(1,1-dimethylethyl)-1H-pyrazol-1-yl]-1-[3-(trifluoromethyl)phenyl]-2-pyrrolidinone]", "values": [
      {"measurement": "Plant response rating, Morningglory", "setting": "[1]; [24]", "result": 0},
      {"measurement": "Plant response rating, Morningglory", "setting": "[1]; [25]", "result": 30},
      {"measurement": "Plant response rating, Crabgrass", "setting": "[2]; [24]", "result": 0},
      {"measurement": "Plant response rating, Crabgrass", "setting": "[2]; [25]", "result": 40},
      {"measurement": "Plant response rating, Foxtail, Giant", "setting": "[3]; [24]", "result": 0},
      {"measurement": "Plant response rating, Foxtail, Giant", "setting": "[3]; [25]", "result": 30},
      {"measurement": "Plant response rating, Velvetleaf", "setting": "[4]; [24]", "result": 0},
      {"measurement": "Plant response rating, Velvetleaf", "setting": "[4]; [25]", "result": 0},
      {"measurement": "Plant response rating, Lambsquarters", "setting": "[5]; [24]", "result": 80},
      {"measurement": "Plant response rating, Lambsquarters", "setting": "[5]; [25]", "result": 100},
      {"measurement": "Plant response rating, Wild Oat", "setting": "wild oat (Avena fatua); [24]", "result": 0},
      {"measurement": "Plant response rating, Wild Oat", "setting": "wild oat (Avena fatua); [25]", "result": 0},
      {"measurement": "Plant response rating, Surinam grass", "setting": "[6]; [24]", "result": 0},
      {"measurement": "Plant response rating, Surinam grass", "setting": "[6]; [25]", "result": 20},
      {"measurement": "Plant response rating, Wheat", "setting": "[7]; [24]", "result": 0},
      {"measurement": "Plant response rating, Wheat", "setting": "[7]; [25]", "result": 0},
      {"measurement": "Plant response rating, Cocklebur", "setting": "[8]; [24]", "result": 0},
      {"measurement": "Plant response rating, Cocklebur", "setting": "[8]; [25]", "result": 30},
      {"measurement": "Plant response rating, Blackgrass", "setting": "[9]; [24]", "result": 0},
      {"measurement": "Plant response rating, Blackgrass", "setting": "[9]; [25]", "result": 0},
      {"measurement": "Plant response rating, Pigweed", "setting": "[10]; [24]", "result": 70},
      {"measurement": "Plant response rating, Pigweed", "setting": "[10]; [25]", "result": 90},
      {"measurement": "Plant response rating, Barnyardgrass", "setting": "[11]; [24]", "result": 0},
      {"measurement": "Plant response rating, Barnyardgrass", "setting": "[11]; [25]", "result": 70},
      {"measurement": "Plant response rating, Corn", "setting": "corn (Zea mays) [12]; [24]", "result": 0},
      {"measurement": "Plant response rating, Corn", "setting": "corn (Zea mays) [12]; [25]", "result": 0},
      {"measurement": "Plant response rating, Morningglory", "setting": "[13]; Preemergence, Rate 500 g/ha", "result": 0},
      {"measurement": "Plant response rating, Morningglory", "setting": "[13]; preemergence, Rate 125 g/ha", "result": 0},
      {"measurement": "Plant response rating, Crabgrass", "setting": "[14]; Preemergence, Rate 500 g/ha", "result": 100},
      {"measurement": "Plant response rating, Crabgrass", "setting": "[14]; preemergence, Rate 125 g/ha", "result": 70},
      {"measurement": "Plant response rating, Foxtail, Giant", "setting": "[15]; Preemergence, Rate 500 g/ha", "result": 80},
      {"measurement": "Plant response rating, Foxtail, Giant", "setting": "[15]; preemergence, Rate 125 g/ha", "result": 40},
      {"measurement": "Plant response rating, Velvetleaf", "setting": "[16]; Preemergence, Rate 500 g/ha", "result": 0},
      {"measurement": "Plant response rating, Velvetleaf", "setting": "[16]; preemergence, Rate 125 g/ha", "result": 0},
      {"measurement": "Plant response rating, Lambsquarters", "setting": "[17]; Preemergence, Rate 500 g/ha", "result": 100},
      {"measurement": "Plant response rating, Lambsquarters", "setting": "[17]; preemergence, Rate 125 g/ha", "result": 100},
      {"measurement": "Plant response rating, Surinam grass", "setting": "[18]; Preemergence, Rate 500 g/ha", "result": 70},
      {"measurement": "Plant response rating, Surinam grass", "setting": "[18]; preemergence, Rate 125 g/ha", "result": 40},
      {"measurement": "Plant response rating, Cocklebur", "setting": "[19]; Preemergence, Rate 500 g/ha", "result": 0},
      {"measurement": "Plant response rating, Cocklebur", "setting": "[19]; preemergence, Rate 125 g/ha", "result": 0},
      {"measurement": "Plant response rating, Pigweed", "setting": "[20]; Preemergence, Rate 500 g/ha", "result": 100},
      {"measurement": "Plant response rating, Pigweed", "setting": "[20]; preemergence, Rate 125 g/ha", "result": 100},
      {"measurement": "Plant response rating, Barnyardgrass", "setting": "[21]; Preemergence, Rate 500 g/ha", "result": 100},
      {"measurement": "Plant response rating, Barnyardgrass", "setting": "[21]; preemergence, Rate 125 g/ha", "result": 80},
      {"measurement": "Plant response rating, Corn", "setting": "corn (Zea mays) [22]; Preemergence, Rate 500 g/ha", "result": 30},
      {"measurement": "Plant response rating, Corn", "setting": "corn (Zea mays) [22]; preemergence, Rate 125 g/ha", "result": 0},
      {"measurement": "Flatsedge plant response rating", "setting": "[23]; Rate 250 g/ha", "result": 100},
      {"measurement": "Flatsedge plant response rating", "setting": "[23]; Rate 500 g/ha", "result": 100},
      {"measurement": "Flatsedge plant response rating", "setting": "[23]; rate of this column group stands in head line r653, not shown (group before Rate 500 g/ha)", "result": 100},
      {"measurement": "Plant response rating, Flatsedge", "setting": "[23]; Rate 62 g/ha", "result": 90},
      {"measurement": "Plant response rating, Flatsedge", "setting": "[23]; Rate 125 g/ha", "result": 100}
    ]}
  ]
}
